According to US4331661A, “Bombesin analogs” (The Salk Institute for Biological Studies, priority 1980, dated 1982):
Non-standard residues stand in square brackets, D forms with d. Residues, ends and D or L forms follow the SMILES beside them. d(pGlu) = O=C1CC[C@H](C(=O)O)N1

Columns and labels:
[1] = tested on: Male Sprague-Dawley-CD rats; assay: Rise in plasma glucose after the 60 minute core temperature measurement; format: in vivo, rat; design: concentration or dose not given beside the values; details: rise in plasma glucose relative to Bombesin (= 100), after intracisternal injection
Description: Male Sprague-Dawley-CD rats weighing 180-200 grams each were housed in temperature and humidity controlled quarters. The rats were fed a standard rat food ration and tap water ad libitum. After being anesthetized with ether, peptides were injected into the cisterna magna of the brain of each rat. The peptides were dissolved in artificial CSF or distilled water. Ten microliters of a peptide solution containing the specified amounts of the peptide were injected. Immediately following the injection, the animals were transferred to a cold room maintained at 4° C. Rectal temperatures were recorded with a thermo-probe at 60 minutes following injection. All experiments were carried out in a randomized block design. Following analyses of variance, differences between groups were determined by the multiple range test of Dunnet and Duncan using the computer program Exbiol.
Following the 60 minute measurement of core temperature, the rats were rapidly decapitated, blood was collected and plasma levels of glucose were determined using a Beckman glucose analyzer. The results in causing a rise in plasma glucose relative to Bombesin are set forth hereinafter in Table III.

[2] = tested on: Male Sprague-Dawley-CD rats; assay: Thermoregulative properties: core (rectal) temperature of rats at 4° C. after intracisternal injection; format: in vivo, rat; details: 60 minutes following injection, control 36.5°
Description: The thermoregulative properties of the peptides were determined as follows:

mammals = details: compared with neurotensin and bombesin; cited from earlier work

Molecule | POTENCY (Plasma Glucose) [1] | CORE TEMPERATURE ([2]; dosage 10 picomoles) [°C] | CORE TEMPERATURE ([2]; dosage 100 picomoles) [°C] | CORE TEMPERATURE ([2]; dosage 7 nanomoles) [°C] | CORE TEMPERATURE ([2]; dosage 7 picomoles) [°C] | CORE TEMPERATURE ([2]; dosage 20 picomoles) [°C] | CORE TEMPERATURE ([2]; dosage 70 picomoles) [°C] | potency (analgesic and thermoregulative effects) (mammals) | CORE TEMPERATURE ([2]; dosage 1 nanomole) [°C]
CSCC[C@H](NC(=O)[C@H](CC(C)C)NC(=O)[C@H](Cc1c[nH]cn1)NC(=O)[C@@H](C)NC(=O)[C@@H](NC(=O)[C@H](C)NC(=O)[C@H](Cc1c[nH]c2ccccc12)NC(=O)[C@@H](CCC(N)=O)NC(C)=O)C(C)C)C(N)=O [Peptide No. 3] | 150 | 32.3 | 31.9 | – | – | – | – | – | –
CSCC[C@H](NC(=O)[C@H](CC(C)C)NC(=O)[C@H](Cc1cnc[nH]1)NC(=O)CNC(=O)[C@@H](NC(=O)[C@H](C)NC(=O)[C@H](Cc1c[nH]c2ccccc12)NC(=O)[C@H](CCC(N)=O)NC(=O)[C@H](CC(N)=O)NC(=O)CNC(=O)[C@H](CC(C)C)NC(=O)[C@H](CCCN=C(N)N)NC(=O)[C@H](CCC(N)=O)NC(=O)[C@@H]1CCC(=O)N1)C(C)C)C(N)=O [Bombesin] | 100 | – | – | 32.1 | 34.7 | 33.8 | 33 | – | –
[d(pGlu)]WAV[dA]HLM-NH2 | – | – | – | – | – | – | – | more potent than neurotensin, it is less potent than bombesin | –
CSCC[C@H](NC(=O)[C@H](CC(C)C)NC(=O)[C@H](Cc1c[nH]cn1)NC(=O)CNC(=O)[C@@H](NC(=O)[C@H](C)NC(=O)[C@H](Cc1c[nH]c2ccccc12)NC(=O)[C@H](Cc1c[nH]cn1)NC(C)=O)C(C)C)C(N)=O [Peptide No. 1] | 100 | 34.3 | 33.2 | – | – | – | – | – | 32.6
CSCC[C@H](NC(=O)[C@H](CC(C)C)NC(=O)[C@H](Cc1c[nH]cn1)NC(=O)[C@@H](C)NC(=O)[C@@H](NC(=O)[C@H](C)NC(=O)[C@H](Cc1c[nH]c2ccccc12)NC(=O)[C@H](C)NC(C)=O)C(C)C)C(N)=O [Peptide No. 2] (Ac-AWAV[dA]HLM-NH2) | 150 | 34.3 | 31.9 | – | – | – | – | – | 30.4
CSCC[C@H](NC(=O)[C@H](CC(C)C)NC(=O)[C@H](Cc1c[nH]cn1)NC(=O)CNC(=O)[C@@H](NC(=O)[C@H](C)NC(=O)[C@H](Cc1c[nH]c2ccccc12)NC(=O)[C@H](C)NC(C)=O)C(C)C)C(N)=O [Peptide No. 4] | 40 | 35.1 | 33.2 | – | – | – | – | – | –
